Consider 22 compounds from patent US10988449B2, “Isoxazole derivatives as nuclear receptor agonists and uses thereof” (IL DONG PHARMACEUTICAL CO., LTD., priority 2017, dated 2021).

As a reminder, the EC50 is the concentration needed to bring the measured effect to its halfway point. As usually defined, the Emax is the size of the effect at its maximum, as opposed to the concentration needed. The AUC is the area under the concentration-time curve, a measure of exposure.

The structures appear in SMILES notation.

Data set [1] deals with T1, human FXR (Homo sapiens, UniProt Q96RI1).
T1 construct: expressed in transfected cells
T1 sequence (Q96RI1 1-486): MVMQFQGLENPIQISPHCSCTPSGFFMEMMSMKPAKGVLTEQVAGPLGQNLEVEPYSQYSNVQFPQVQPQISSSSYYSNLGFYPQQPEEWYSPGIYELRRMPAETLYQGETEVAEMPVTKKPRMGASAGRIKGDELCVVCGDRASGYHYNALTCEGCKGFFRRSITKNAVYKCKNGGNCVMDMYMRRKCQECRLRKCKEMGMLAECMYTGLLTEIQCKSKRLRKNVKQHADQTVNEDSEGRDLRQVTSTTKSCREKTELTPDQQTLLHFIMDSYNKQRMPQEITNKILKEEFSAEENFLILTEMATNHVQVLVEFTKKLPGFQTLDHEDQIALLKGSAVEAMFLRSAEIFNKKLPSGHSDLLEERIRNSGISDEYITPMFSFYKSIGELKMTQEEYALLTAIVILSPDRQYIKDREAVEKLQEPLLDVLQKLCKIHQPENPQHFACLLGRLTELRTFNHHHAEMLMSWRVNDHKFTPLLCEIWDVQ
The experiment in a line: FXR reporter assay (cellular FXR activities). The conditions noted are these: for EC50: FXR reporter cells, 24 hours incubation, luciferase, read-out: Reporter Cell EC50; for Emax: read-out: Emax (%) (GW4064 Emax = 100%). Format: cell-based. The procedure, abridged: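 EC50 derived from luciferase read-out after 24 h (37 °C, 5% CO2) treatment of human-FXR-expressing reporter cells with serially diluted compound.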
In general terms: In a reporter assay the amount or activity of a reporter protein is the signal.

Data set [2] can be described thus: Mouse pharmacokinetics. Also noted: concentration or dose not given beside the values. It counts as in vivo. The conditions noted are these: mouse; Balb/c male mice; blood samples 15 to 1140 min; LC-MS/MS; read-out: AUC. How it is done: To evaluate the pharmacokinetics test, the invented 18 compounds of examples were determined as follows. Blood samples are collected at 15, 30, 60, 120, 240, 480, 1140 min. Quantification is by using a LC-MS/MS method specific to the selected compound. Pharmacokinetics parameters are calculated using WinNonLinnon compartmental analysis software.

Turning to `O=C(O)c1cc(C#Cc2ccc(OCc3c(-c4c(Cl)cccc4Cl)noc3C3CC3)cc2Cl)c2cc[nH]c2c1` [Compound I-91, 4-((2-chloro-4-((5-cyclopropyl-3-(2,6-dichlorophenyl)isoxazol-4-yl)methoxy)phenyl)ethynyl)-1H-indole-6-carboxylic acid], in data set [1], the EC50 is at most 0.02 µM and the Emax is over 100%. The AUC in data set [2] turned out to be 544 ng·h/mL.
`O=C(O)c1cccc(C#Cc2ccc(OCc3c(-c4c(Cl)cccc4Cl)noc3C3CC3)cc2C(F)(F)F)c1` [Compound I-3, 3-((4-((5-cyclopropyl-3-(2,6-dichlorophenyl)isoxazol-4-yl)methoxy)-2-(trifluromethyl)phenyl)ethynyl)benzoic acid]: in data set [1], the half-maximal effective concentration (EC50) was in the range of 0.2 to 1 µM and the maximum response (Emax) was over 100%. Besides, in data set [2], the area under the curve (AUC) came out at 760 ng·h/mL.
In the case of `Cc1cc(C#Cc2ccc(OCc3c(-c4c(Cl)cccc4Cl)noc3C3CC3)cc2Cl)cc(C(=O)O)c1` [Compound I-63, 3-((2-chloro-4-((5-cyclopropyl-3-(2,6-dichlorophenyl)isoxazol-4-yl)methoxy)phenyl)ethynyl)-5-methylbenzoic acid], in data set [1], the EC50 is 0.06 to 0.2 µM and the Emax turned out to be 78%. In data set [2], the area under the curve (AUC) was found to be 11900 ng·h/mL.
As for `CC(C)c1nc2cc(C#Cc3ccc(OCc4c(-c5c(Cl)cccc5Cl)noc4C4CC4)cc3Cl)cc(C(=O)O)c2o1` [Compound I-106, 5-((2-chloro-4-((5-cyclopropyl-3-(2,6-dichlorophenyl)isoxazol-4-yl)methoxy)phenyl)ethynyl)-2-isopropylbenzo[d]oxazole-7-carboxylic acid], in data set [1], the EC50 lay within 0.02 to 0.06 µM and the Emax turned out to be 96%. Moreover, in data set [2], the AUC turned out to be 2250 ng·h/mL.
For the compound `CN(C)c1cc(C#Cc2ccc(OCc3c(-c4c(Cl)cccc4Cl)noc3C3CC3)cc2Cl)cc(C(=O)O)c1` [Compound I-21, 3-((2-chloro-4-((5-cyclopropyl-3-(2,6-dichlorophenyl)isoxazol-4-yl)methoxy)phenyl)ethynyl)-5-(dimethylamino)benzoic acid], in data set [1], the EC50 was at most 0.02 µM and the maximum response (Emax) stood at 92%. Further, in data set [2], the area under the curve (AUC) is 6140 ng·h/mL.
For the compound `O=C(O)c1cc(C#Cc2ccc(OCc3c(-c4c(Cl)cccc4Cl)noc3C3CC3)cc2Cl)cc2[nH]ncc12` [Compound I-99, 6-((2-chloro-4-((5-cyclopropyl-3-(2,6-dichlorophenyl)isoxazol-4-yl)methoxy)phenyl)ethynyl)-1H-indazole-4-carboxylic acid], in data set [1], the EC50 is 0.06 to 0.2 µM and the maximal effect (Emax) was 86%. In addition, the area under the curve (AUC) in data set [2] is 205 ng·h/mL.
`CC(C)(C)OC(=O)Nc1cc(C#Cc2ccc(OCc3c(-c4c(Cl)cccc4Cl)noc3C3CC3)cc2Cl)cc(C(=O)O)c1` [Compound I-77, 3-((tert-butoxycarbonyl)amino)-5-((2-chloro-4-((5-cyclopropyl-3-(2,6-dichlorophenyl)isoxazol-4-yl)methoxy)phenyl)ethynyl)benzoic acid]: in data set [1], the EC50 is at most 0.02 µM and the maximum response (Emax) worked out at 100%. For the same compound, in data set [2], the area under the curve (AUC) is 1010 ng·h/mL.
The matching figures for `CNc1cc(C#Cc2ccc(OCc3c(-c4c(Cl)cccc4Cl)noc3C3CC3)cc2Cl)cc(C(=O)O)c1` [Compound I-52, 3-((2-chloro-4-((5-cyclopropyl-3-(2,6-dichlorophenyl)isoxazol-4-yl)methoxy)phenyl)ethynyl)-5-(methylamino)benzoic acid]: 0.02 to 0.06 µM, over 100% and 3310 ng·h/mL.
`O=C(O)c1cccc(C#Cc2ccc(OCc3c(-c4c(Cl)cccc4Cl)noc3C3CC3)cc2Cl)c1` [Compound I-15, 3-((2-chloro-4-((5-cyclopropyl-3-(2,6-dichlorophenyl)isoxazol-4-yl)methoxy)phenyl)ethynyl)benzoic acid]: in data set [1], the EC50 fell in the range of 0.06 to 0.2 µM and the Emax was 82%. The exposure (AUC) in data set [2] stood at 521 ng·h/mL.
Consider `O=C(O)c1ccc(F)c(C#Cc2ccc(OCc3c(-c4c(Cl)cccc4Cl)noc3C3CC3)cc2Cl)c1` [Compound I-38, 3-((2-chloro-4-((5-cyclopropyl-3-(2,6-dichlorophenyl)isoxazol-4-yl)methoxy)phenyl)ethynyl)-4-fluorobenzoic acid], for which, in data set [1], the EC50 was 0.06 to 0.2 µM and the maximal effect (Emax) was found to be 92%. Moreover, the exposure (AUC) in data set [2] turned out to be 1000 ng·h/mL.
For `O=C(O)c1cncc(C#Cc2ccc(OCc3c(-c4c(Cl)cccc4Cl)noc3C3CC3)cc2Cl)c1` [Compound I-20, 5-((2-chloro-4-((5-cyclopropyl-3-(2,6-dichlorophenyl)isoxazol-4-yl)methoxy)phenyl)ethynyl)nicotinic acid], in data set [1], the EC50 is 0.06 to 0.2 µM and the maximum response (Emax) is 94%. In addition, the area under the curve (AUC) in data set [2] came out at 438 ng·h/mL.
Regarding `O=C(O)c1cc(C#Cc2ccc(OCc3c(-c4c(Cl)cccc4Cl)noc3C3CC3)cc2Cl)c2cn[nH]c2c1` [Compound I-89, 4-((2-chloro-((5-cyclopropyl-3-(2,6-dichlorophenyl)isoxazol-4-yl)methoxy)phenyl)ethynyl)-1H-indazole-6-carboxylic acid], in data set [1], the EC50 is 0.02 to 0.06 µM and the maximal response (Emax) came out at 88%. Besides, the AUC in data set [2] worked out at 271 ng·h/mL.
On the same counts, the results for `CC(C)Nc1cc(C#Cc2ccc(OCc3c(-c4c(Cl)cccc4Cl)noc3C3CC3)cc2Cl)cc(C(=O)O)c1` [Compound I-54, 3-((2-chloro-4-((5-cyclopropyl-3-(2,6-dichlorophenyl)isoxazol-4-yl)methoxy)phenyl)ethynyl)-5-(isopropylamino)benzoic acid] are at most 0.02 µM, over 100% and 934 ng·h/mL.
The matching figures for `O=C(O)c1cc(F)cc(C#Cc2ccc(OCc3c(-c4c(Cl)cccc4Cl)noc3C3CC3)cc2Cl)c1` [Compound I-30, 3-((2-chloro-4-((5-cyclopropyl-3-(2,6-dichlorophenyl)isoxazol-4-yl)methoxy)phenyl)ethynyl)-5-fluorobenzoic acid]: 0.02 to 0.06 µM, 92% and 680 ng·h/mL.
Regarding `O=C(O)c1ccc(C#Cc2ccc(OCc3c(-c4c(Cl)cccc4Cl)noc3C3CC3)cc2Cl)cc1` [Compound I-16, 4-((2-chloro-4-((5-cyclopropyl-3-(2,6-dichlorophenyl)isoxazol-4-yl)methoxy)phenyl)ethynyl)benzoic acid], in data set [1], the EC50 lay in the range of 0.06 to 0.2 µM and the maximal response (Emax) came out at 91%. For the same compound, the exposure (AUC) in data set [2] was 2250 ng·h/mL.
On the same counts, the results for `O=C(O)c1cccc(C#Cc2ccc(OCc3c(-c4c(Cl)cccc4Cl)noc3C3CC3)cc2)c1` [Compound I-2, 3-((4-((5-cyclopropyl-3-(2,6-dichlorophenyl)isoxazol-4-yl)methoxy)phenyl)ethynyl)benzoic acid] are over 1 µM, over 100% and 277 ng·h/mL.
As to `CCOC(=O)N(C)c1cc(C#Cc2ccc(OCc3c(-c4c(Cl)cccc4Cl)noc3C3CC3)cc2Cl)cc(C(=O)O)c1` [Compound I-75], in data set [1], the concentration giving a half-maximal response (EC50) was in the range of 0.02 to 0.06 µM and the maximum response (Emax) stood at 93%.
With `O=C(O)c1cccc(C#Cc2ccc(OCc3c(-c4c(Cl)cccc4Cl)noc3C3CC3)c(Cl)c2Cl)c1` [Compound I-69, 3-((2,3-dichloro-4-((5-cyclopropyl-3-(2,6-dichlorophenyl)isoxazol-4-yl)methoxy)phenyl)ethynyl)benzoic acid], in data set [1], the concentration for a half-maximal effect (EC50) lay in the range of 0.2 to 1 µM and the maximum response (Emax) was over 100%.
Consider `CCCCc1nc2cc(C#Cc3ccc(OCc4c(-c5c(Cl)cccc5Cl)noc4C4CC4)cc3Cl)cc(C(=O)O)c2o1` [Compound I-111, 2-butyl-5-((2-chloro-4-((5-cyclopropyl-3-(2,6-dichlorophenyl)isoxazol-4-yl)methoxy)phenyl)ethynyl)benzo[d]oxazole-7-carboxylic acid], for which, in data set [1], the EC50 is 0.02 to 0.06 µM and the Emax is 98%.
On the same counts, the results for `CN(C)Cc1cc(C#Cc2ccc(OCc3c(-c4c(Cl)cccc4Cl)noc3C3CC3)cc2Cl)cc(C(=O)O)c1` [Compound I-49, 3-((2-chloro-4-((5-cyclopropyl-3-(2,6-dichlorophenyl)isoxazol-4-yl)methoxy)phenyl)ethynyl)-5-((dimethylamino)methyl)benzoic acid] are 0.02 to 0.06 µM and over 100%.
On the same counts, the results for `COc1c(N)cc(C(=O)O)cc1C#Cc1ccc(OCc2c(-c3c(Cl)cccc3Cl)noc2C2CC2)cc1Cl` [Compound I-61, 3-amino-5-((2-chloro-4-((5-cyclopropyl-3-(2,6-dichlorophenyl)isoxazol-4-yl)methoxy)phenyl)ethynyl)-4-methoxybenzoic acid] are 0.06 to 0.2 µM and 95%.
The matching figures for `CCc1nc2cc(C#Cc3ccc(OCc4c(-c5c(Cl)cccc5Cl)noc4C4CC4)cc3Cl)cc(C(=O)O)c2o1` [Compound I-104, 5-((2-chloro-4-((5-cyclopropyl-3-(2,6-dichlorophenyl)isoxazol-4-yl)methoxy)phenyl)ethynyl)-2-ethylbenzo[d]oxazole-7-carboxylic acid]: at most 0.02 µM and 94%.
